Reference: ChEMBL document CHEMBL2439989 (Bioorg Med Chem Lett, 2013)

Key:
[1] = biological target: 5-hydroxytryptamine receptor 7 (Homo sapiens, UniProt P34969); assay: Displacement of [3H]5-CT from human 5HT7A receptor expressed in HEK293 cells after 60 mins; assay type: cell-based
[2] = Efflux ratio of apparent permeability from basolateral to apical side over apical to basolateral side in human Caco2 cells at 1 to 100 uM after 120 mins by UV spectroscopic analysis; assay type: ADME, cell-based; details: Caco-2
[3] = Metabolic stability in rat liver S9 fractions at 10 uM after 30 mins by RP-HPLC analysis; assay type: ADME, subcellular, Liver S9 fraction; details: read-out: Stability
[4] = (§1) Binding affinity to sigma 2 receptor (unknown origin) by radioligand binding assay; parameters: species or system Homo sapiens
[5] = biological target: T1, Adrenergic receptor alpha-1 (Rattus norvegicus, UniProt P15823+P23944+P43140); assay: Displacement of [3H]-prazosin from alpha1 adrenergic receptor in rat cerebral cortex membranes after 50 mins; assay type: cell membranes, Membrane
T1 sequence (P15823 whole entry): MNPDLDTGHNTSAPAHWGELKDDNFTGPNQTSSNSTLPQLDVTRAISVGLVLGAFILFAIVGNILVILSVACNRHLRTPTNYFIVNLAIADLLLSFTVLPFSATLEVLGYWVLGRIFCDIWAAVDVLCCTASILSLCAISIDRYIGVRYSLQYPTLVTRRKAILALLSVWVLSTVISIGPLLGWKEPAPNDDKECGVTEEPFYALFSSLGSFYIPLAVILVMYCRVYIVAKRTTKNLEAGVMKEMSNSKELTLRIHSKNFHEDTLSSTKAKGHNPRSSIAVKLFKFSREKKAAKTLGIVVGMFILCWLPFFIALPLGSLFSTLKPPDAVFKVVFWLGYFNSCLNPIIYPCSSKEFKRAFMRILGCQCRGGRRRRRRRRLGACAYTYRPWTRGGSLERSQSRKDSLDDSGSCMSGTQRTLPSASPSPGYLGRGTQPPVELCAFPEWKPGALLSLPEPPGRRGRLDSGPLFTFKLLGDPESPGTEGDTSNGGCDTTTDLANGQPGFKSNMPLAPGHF
T1 sequence (P23944 whole entry): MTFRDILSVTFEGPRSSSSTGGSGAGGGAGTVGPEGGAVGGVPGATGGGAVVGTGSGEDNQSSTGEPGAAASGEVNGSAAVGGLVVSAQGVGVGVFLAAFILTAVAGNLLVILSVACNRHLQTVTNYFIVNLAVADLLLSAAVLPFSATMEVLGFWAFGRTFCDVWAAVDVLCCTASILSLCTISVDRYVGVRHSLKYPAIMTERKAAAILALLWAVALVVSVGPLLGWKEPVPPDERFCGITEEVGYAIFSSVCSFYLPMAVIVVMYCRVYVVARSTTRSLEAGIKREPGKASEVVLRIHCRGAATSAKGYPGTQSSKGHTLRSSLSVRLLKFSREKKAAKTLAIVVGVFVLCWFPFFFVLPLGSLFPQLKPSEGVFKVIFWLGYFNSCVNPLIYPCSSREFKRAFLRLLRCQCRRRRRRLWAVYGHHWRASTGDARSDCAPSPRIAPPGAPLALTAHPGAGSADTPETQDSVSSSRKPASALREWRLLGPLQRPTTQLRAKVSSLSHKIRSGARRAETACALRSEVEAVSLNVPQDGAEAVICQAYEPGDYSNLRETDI
T1 sequence (P43140 whole entry): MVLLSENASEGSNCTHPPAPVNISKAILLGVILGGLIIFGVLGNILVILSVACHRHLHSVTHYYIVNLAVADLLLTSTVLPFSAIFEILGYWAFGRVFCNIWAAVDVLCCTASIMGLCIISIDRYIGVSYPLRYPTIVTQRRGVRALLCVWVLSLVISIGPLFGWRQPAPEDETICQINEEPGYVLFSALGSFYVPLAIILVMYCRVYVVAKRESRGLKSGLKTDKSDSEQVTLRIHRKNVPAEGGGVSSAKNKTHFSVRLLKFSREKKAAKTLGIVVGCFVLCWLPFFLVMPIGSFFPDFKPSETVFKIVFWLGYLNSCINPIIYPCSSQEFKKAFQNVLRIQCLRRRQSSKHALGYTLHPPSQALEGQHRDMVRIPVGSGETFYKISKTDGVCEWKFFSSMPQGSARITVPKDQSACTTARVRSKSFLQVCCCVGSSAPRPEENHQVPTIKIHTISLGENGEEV

[6] = biological target: T2, 5-hydroxytryptamine receptor 1A (Homo sapiens, UniProt P08908); assay: Displacement of [3H]-8-OH-DPAT from human recombinant 5HT1A receptor expressed in HEK293-EBNA cells after 120 mins; assay type: cell-based
T2 sequence (P08908 whole entry): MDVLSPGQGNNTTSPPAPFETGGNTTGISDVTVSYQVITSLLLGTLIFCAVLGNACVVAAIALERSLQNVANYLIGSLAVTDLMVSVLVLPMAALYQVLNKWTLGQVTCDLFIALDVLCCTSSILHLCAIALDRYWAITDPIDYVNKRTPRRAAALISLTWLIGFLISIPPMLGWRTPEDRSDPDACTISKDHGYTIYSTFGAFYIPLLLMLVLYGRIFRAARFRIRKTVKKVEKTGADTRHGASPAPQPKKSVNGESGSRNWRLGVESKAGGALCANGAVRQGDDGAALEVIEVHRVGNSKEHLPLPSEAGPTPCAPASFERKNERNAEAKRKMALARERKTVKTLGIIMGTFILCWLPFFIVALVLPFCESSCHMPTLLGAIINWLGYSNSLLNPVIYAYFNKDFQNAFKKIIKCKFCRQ

[7] = biological target: Sigma non-opioid intracellular receptor 1 (Homo sapiens, UniProt Q99720); assay: Binding affinity to sigma 1 receptor (unknown origin) by radioligand binding assay; details: for inhibition: concentration not given here
Chain of Sigma non-opioid intracellular receptor 1 (Q99720 whole entry): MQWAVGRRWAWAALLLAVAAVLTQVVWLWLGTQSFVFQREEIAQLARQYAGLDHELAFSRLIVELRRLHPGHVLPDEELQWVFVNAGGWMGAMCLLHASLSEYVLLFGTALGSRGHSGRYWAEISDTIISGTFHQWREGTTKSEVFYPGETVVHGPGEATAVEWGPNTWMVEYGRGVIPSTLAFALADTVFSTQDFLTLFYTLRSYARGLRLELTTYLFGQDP

Homo sapiens = organism: Homo sapiens; assay: as §1; details: concentration not given here
[8] = Half life in mouse brain at 10 to 30 mg/kg, ip; assay type: ADME, organism-based; parameters: dose 10-30 mg/kg, route intraperitoneal
[9] = biological target: T2, 5-hydroxytryptamine receptor 1A; assay: Displacement of [3H]-8-OH-DPAT from human 5HT1A receptor after […]
Mus musculus = assay: Elimination half life in CD1 mouse assessed as 1-[2-(4-methoxyphenyl)phenyl]piperazine at 10 mg/kg, ip qd by RP-HPLC analysis; assay type: ADME, organism-based; parameters: dose 10 mg/kg, route intraperitoneal; details: in vivo
[10] = Elimination half life in CD1 mouse at 10 mg/kg, ip qd by RP-HPLC analysis; assay type: ADME, organism-based; parameters: dose 10 mg/kg, route intraperitoneal; details: in vivo, read-out: beta t1/2
Brain = assay: Cmax in brain of CD1 mouse assessed as 1-[2-(4-methoxyphenyl)phenyl]piperazine at 10 mg/kg, ip qd after 30 mins by RP-HPLC analysis; assay type: ADME, organism-based; parameters: dose 10 mg/kg, route intraperitoneal; details: in vivo, 0.5 h
[11] = Ratio of AUC from brain to plasma of CD1 mouse at 10 mg/kg, ip qd measured within 120 mins by RP-HPLC analysis; assay type: ADME, organism-based; parameters: dose 10 mg/kg, route intraperitoneal; details: read-out: Ratio AUC
[12] = Cmax in brain of CD1 mouse at 10 mg/kg, ip qd after 30 mins by RP-HPLC analysis; assay type: ADME, organism-based; parameters: dose 10 mg/kg, route intraperitoneal
[13] = Cmax in plasma of CD1 mouse at 10 mg/kg, ip qd after 15 mins by RP-HPLC analysis; assay type: ADME, organism-based; parameters: dose 10 mg/kg, route intraperitoneal

Chain of 5-hydroxytryptamine receptor 7 (P34969 whole entry): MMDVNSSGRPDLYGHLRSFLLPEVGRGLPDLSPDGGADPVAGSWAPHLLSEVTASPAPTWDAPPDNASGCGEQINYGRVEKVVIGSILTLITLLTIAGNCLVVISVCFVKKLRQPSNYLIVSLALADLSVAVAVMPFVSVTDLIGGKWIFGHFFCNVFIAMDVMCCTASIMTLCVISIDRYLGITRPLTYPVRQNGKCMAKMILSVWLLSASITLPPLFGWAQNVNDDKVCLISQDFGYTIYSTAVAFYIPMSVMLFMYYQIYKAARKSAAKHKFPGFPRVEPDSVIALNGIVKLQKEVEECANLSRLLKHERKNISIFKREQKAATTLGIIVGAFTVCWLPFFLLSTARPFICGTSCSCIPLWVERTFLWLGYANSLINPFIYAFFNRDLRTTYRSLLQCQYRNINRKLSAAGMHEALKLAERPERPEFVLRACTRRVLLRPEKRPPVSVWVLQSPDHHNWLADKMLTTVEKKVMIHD

Ki [1] [nM] | efflux ratio at 2 h, up to 100 µM [2] | remaining at 0.5 h, 10 µM [3] [%] | Ki [4] [nM] | Ki [5] [nM] | Ki [6] [nM] | Ki [7] [nM] | inhibition [7] [%] | inhibition (Homo sapiens) [%] | half-life [8] [h] | Ki [9] [nM] | beta t1/2 (Mus musculus) [h] | half-life [10] [h] | Cmax (Brain) [ng/g] | Kp at 2 h [11] | Cmax [12] [ng/g] | Cmax [13] [ng/mL] | Structure (SMILES)
15.2 | – | 69 | 3480 | 11.4 | 35 | – | – | – | – | – | – | – | – | – | – | – | COc1ccc(-c2ccccc2N2CCN(CCCCCC(=O)NCc3ccccn3)CC2)cc1
– | – | 40 | 4200 | 22.6 | – | > 5000 | 48 | – | 1.15 | 379 | – | – | – | – | – | – | N#Cc1ccc(CNC(=O)CCCCCN2CCN(c3ccccc3-c3ccccc3)CC2)cc1

Continued, compound first:

Structure (SMILES) | Ki [1] [nM] | efflux ratio at 2 h, up to 100 µM [2] | remaining at 0.5 h, 10 µM [3] [%] | Ki [4] [nM] | Ki [5] [nM] | Ki [6] [nM] | Ki [7] [nM] | inhibition [7] [%] | inhibition (Homo sapiens) [%] | half-life [8] [h] | Ki [9] [nM] | beta t1/2 (Mus musculus) [h] | half-life [10] [h] | Cmax (Brain) [ng/g] | Kp at 2 h [11] | Cmax [12] [ng/g] | Cmax [13] [ng/mL]
COc1ccc(-c2ccccc2N2CCN(CCCCCC(=O)NCc3cccnc3)CC2)cc1 | 12.7 | 4.5 | 85 | 638 | 38.3 | 80 | – | – | – | – | – | – | – | – | – | – | –
COc1ccc(-c2ccccc2N2CCN(CCCCCC(=O)NCc3ccncc3)CC2)cc1 | 11.2 | – | 76 | 356 | 30.5 | 239 | > 5000 | 30 | – | – | – | – | – | – | – | – | –
COc1ccc(-c2ccccc2N2CCN(CCOCCC(=O)NCc3ccccn3)CC2)cc1 | 23.5 | – | 78 | > 10000 | 295 | 918 | > 5000 | 27 | 39 | – | – | – | – | – | – | – | –
COc1ccc(-c2ccccc2N2CCN(CCOCCC(=O)NCc3ccncc3)CC2)cc1 | 18 | – | 82 | > 10000 | 193 | 877 | > 5000 | 33 | 45 | – | – | – | – | – | – | – | –
COc1ccc(-c2ccccc2N2CCN(CCOCCC(=O)NCc3cccnc3)CC2)cc1 | 23.8 | 3.3 | 82 | > 10000 | 393 | 1270 | > 5000 | 36 | 38 | – | – | 2 | 0.733 | 484 | 1.3 | 308 | 702
